From patent US20070274916A1, “Method for Identifying Compounds that Affect Expression of Tryptophan Hydroxylase Isoform 2” (priority 2003, published 2007)
Entries after “also recorded” stand apart in the source; their conditions may differ.

How the values were obtained:
Format in all cases: in vivo, mouse
TPH1 mRNA = TPH1 mRNA levels in murine raphe slice preparation by real-time RT-PCR; details: FIG. 6
Source text: (§1) Female mice (13 to 16 wks of age) were ovariectomized (C57BL/6s from Charles River; ER Knockout animals from Taconic). Animals were fed a soy-free rodent chow and allowed a minimum of one week to recuperate from surgery and shipping. […] Approximately six hours following the fourth dose, mice were deeply anesthetized with ketamine/xylazine and brains were removed from the skull, placed ventral side up in a mouse brain block on ice, and ice-cold razor blades were inserted into the block at 1 mm intervals. The caudal extent of the hypothalamus was used as an anatomical marker for the placement of the first razor blade, and 4 blades were placed in sequential slots, caudally. The four sections were examined and the two that encompassed the greatest extent of the dorsal raphe were placed in a tube containing RNALATER (Ambion, Austin, Tex.) and placed at 4° C. overnight. Brain slices were removed from RNALATER after 24 hours and stored at −80° C. in fresh tubes.
(§2) Isolation of total RNA from mouse raphe slices for real-time PCR analysis using the TAQMAN ABI PRISMS 7700 Detection System, Applied Biosystems, Foster City, Calif. was as follows. Samples were stored in RNALATER at 4° C. overnight followed by removal of RNALATER and storage at −80° C. until isolation of the total RNA (2 slices weigh 25 to 50 mg). Slices were removed from −80° C. and placed in 1.0 mL TRIZOL Reagent in FASTPREP processing tubes. Slices were homogenized with one pass at setting 6 for 30 seconds in FASTPREP 120 homogenizer using LYSING MATRIX D tubes with bead matrix followed by 20 seconds at setting 6 after all samples had been processed. Samples were set at room temperature for 5 minutes to allow for complete dissociation of nucleoprotein complexes followed by centrifugation of the samples at 12,000×g for 5 minutes at 4° C. Homogenates were transferred to 1.5 mL; microcentrifuge tubes and 100 μL BCP (Bromo-3-chloropropane) was added. Samples were vortexed for 15 seconds and set at room temperature for 2 to 3 minutes. Samples were centrifuged at 12,000×g for 15 minutes at 4° C. The aqueous layer was removed and placed in a new RNAse-free sterile 1.5 mL microcentrifuge tube. Five μL of 5 mg/μL glycogen was added to each sample and the samples were vortexed. Five hundred μL of isopropanol was added to each sample. The samples were vortexed for 15 seconds, set at room temperature 10 minutes, followed by centrifugation at 12,000×g for 15 minutes at 4° C. Supernatants were decanted and pellets washed with 500 μL ice cold 75% ethanol. Samples were centrifuged at 12,000×g for 15 minutes at 4° C., ethanol decanted, and pellets air dried for 10 minutes. Pellets were resuspended in 30 μL prewarmed RNASECURE (60° C.), and heated at 60° C. for 10 min. Samples were stored at −80° C. until DNAse treatment and cDNA synthesis.
DNase treatment and cDNA preparation with wt mouse raphe slice total RNA for TAQMAN analysis. DNase treatment using DNA-free kit (Ambion). Five μg of the total RNA sample was aliquotted to each well of a 96 well plate. An 1× DNase I solution was added to each sample (DNase I buffer, DNase I, H2O). Reactions were mixed and incubated at 37° C. for 30 minutes. Reactions were inactivated by addition of DNase inactivation reagent beads, mixed well at room temperature for 3 minutes and centrifuged at 2,500 RPM for 1 minutes at 4° C. (25 μL reactions were run and inactivated with 1/10 volume of inactivation reagent).
Reverse Transcription. A 10 μL of the DNase I-treated total RNA was added to 40 μL of 1× reverse transcription reaction mix (DEPC treated H2O, RT buffer, MgCl2, dNTP mix, random hexamers, RNase inhibitor, and MULTISCRIBE RT) and incubated at 25° C. for 10 minutes, 48° C. for 30 minutes, and 95° C. for 5 minutes. Reverse transcription was halted by the addition of EDTA. Samples were transferred to a storage plate and stored at −20° C. […]

TPH2 mRNA [1] = experiment: TPH2 mRNA levels in murine raphe slice preparation of ovariectomized female mice by real-time RT-PCR; details: prednisolone 10 mpk once daily; FIGS. 7 and 8
Source text: as §1, with “RNALATER” left out
Two TPH2 primer and probe sets were generated for use in detecting TPH2 by real-time RT-PCR. Murine TPH2 forward primers were mTPH2-514F and mTPH2-1270F, their corresponding sequences are 5′-[…]-3′ (SEQ ID NO:7; corresponding to nucleotides 514 to 535 of the nucleotide sequence encoding TPH2) and 5′-[…]-3′ (SEQ ID NO:8; corresponding to nucleotides 1270 to 1290 of the nucleotide sequence encoding TPH2), respectively. The murine TPH2 reverse primers were mTPH2-585R and mTPH2-1344R, their corresponding sequences are 5′-[…]-3′ (SEQ ID NO:9; corresponding to nucleotides 567 to 585 of the nucleotide sequence encoding TPH2) and 5′-[…]-3′ (SEQ ID NO:10; corresponding to nucleotides 1324 to 1344 of the nucleotide sequence encoding TPH2), respectively. The murine TPH2 probes were mTPH2-565T and mTPH2-1292T, their corresponding sequences are: 5′-[…]-3′ (SEQ ID NO:11; corresponding to nucleotides 539 to 565 of the nucleotide sequence encoding TPH2) and 5′-[…]-3′ (SEQ ID NO:12; corresponding to nucleotides 1292 to 1317 of the nucleotide sequence encoding TPH2), respectively. The probes were labeled at the 5′ end with FAM and the 3′ end with TAMRA.
as §2, with “RNALATER” left out, “ethanol.” for “ethanol. Samples were centrifuged at 12,000×g for 15 minutes at 4° C., ethanol decanted, and pellets air dried for 10 minutes. Pellets were resuspended in 30 μL prewarmed RNASECURE (60° C.), and heated at 60° C. for 10 min. Samples were stored at −80° C. until DNAse treatment and cDNA synthesis.”

[2] = Plasma corticosterone in male BKTO mice (radioimmunoassay); details: 4×5 mg pellets, equivalent of 40mg/kg/day, 14 days, FIG. 10, p=0.004
Description: (§3) Male BKTO mice (Bantin and Kingman, Hull UK) weighing 25 g at the start of the experiment were briefly anaesthetized using isofluorane. Animals were implanted with 4×5 mg cortic/sterone pellets (Innovative Research of America, catalogue number G-111, 21 day release formulation) or 4× placebo pellets (catalogue number NC-111) this gave an equivalent of 40mg/kg/day of corticosterone. Pellets were implanted using a trochar supplied by the manufacturer which had been modified to allow 4 pellets to be held in one trochar, thus requiring only one incision per animal. The most ideal place to implant the pellet was where there is maximal space between the skin and the muscle such as the lateral side of the neck between the ear and the shoulder-no stitching or wound clipping was required when using this technique. Animals were returned to the home cage and allowed to recover. Fourteen days later, the animals were humanely killed and trunk blood collected into EDTA coated tubes, centrifuged for 10 minutes at 3000 rpm, and plasma removed and frozen on dry ice until ready for analysis. Brains were removed, frozen in isopentane, and stored at −80° C. until ready for analysis. […] Plasma corticosterone was analyzed using a COAT-A-COUNT rat corticosterone radioimmunoassay kit (DPC Products-Order no TKRC1). […]

TPH2 mRNA [3] = experiment: TPH2 mRNA in raphe slice preparation of male BKTO mice under chronic corticosterone, real-time RT-PCR; details: 14 days, equivalent of 40mg/kg/day
Description: as §3

SMILES | effect on TPH1 mRNA levels (TPH1 mRNA; 10 mpk s.c., ovariectomized mice) | change of TPH1 mRNA levels in response to treatment (TPH1 mRNA; murine raphe slice preparations, dose not stated) | effect on TPH2 mRNA expression compared to vehicle (TPH2 mRNA [1]) | plasma levels after treatment [2] | level of TPH2 mRNA in raphe slice preparation (TPH2 mRNA [3]; FIG. 11, p=0.01) | level of TPH2 mRNA in raphe slice preparation (TPH2 mRNA [3]; FIG. 11, p=0.01, listed as corticosterone)
C[C@]12C=CC(=O)C=C1CC[C@@H]1[C@@H]2[C@@H](O)C[C@@]2(C)[C@H]1CC[C@]2(O)C(=O)CO [prednisolone] | neither 3 mpk of dexamethasone nor 10 mpk prednisolone had any effect; also recorded: no effect | no detectable change | decrease; also recorded: significant reduction |  |  | 
C[C@]12C[C@H](O)[C@H]3[C@@H](CCC4=CC(=O)CC[C@@]43C)[C@@H]1CC[C@@H]2C(=O)CO [corticosterone] |  |  |  | significant increase | significantly reduced | significant decrease
